PMC11604048, “Constrained TACC3 peptidomimetics for a non-canonical protein–protein interface elucidate allosteric communication in Aurora-A kinase” (Chemical Science, 2024)
Like-named read-outs stand apart in the source and are kept apart here. One block for each compound: values may come before it. *1 amine or outer side, *2 acyl side, *3 side chain or, on linkers, in order; H or OH if unused. Where a SMILES comes first, the peptide text is derived from it. Bridges are numbered along the chain shown (N, C = ends). [ ]: non-standard residue; d: D form. Biphenyl(4,4'-CH2)2 = c1cc(-c2ccc(C[*:2])cc2)ccc1C[*:1]; Maleimide(3,4-diyl) = O=C1NC(=O)C([*:2])=C1[*:1]; Bpa = N[C@@H](Cc1ccc(C(=O)c2ccccc2)cc1)C(=O)O

Key:
[1] = molecular target: T1, Aurora-A122-403-C290A/C393A (Homo sapiens, UniProt O14965, C290A/C393A); assay: Isothermal titration calorimetry (ITC); type: binding; settings: single titration
T1 construct: Human Aurora-A kinase domain 122-403 wild-type or C290A/ C393A mutant; His tag (pET30TEV vector) (N, cleaved yes); made in house; host or cells: E. coli RIL, co-expressed with lambda phosphatase (Aurora-A); tracer by solid phase synthesis
T1 sequence (O14965 122-403 C290A/C393A): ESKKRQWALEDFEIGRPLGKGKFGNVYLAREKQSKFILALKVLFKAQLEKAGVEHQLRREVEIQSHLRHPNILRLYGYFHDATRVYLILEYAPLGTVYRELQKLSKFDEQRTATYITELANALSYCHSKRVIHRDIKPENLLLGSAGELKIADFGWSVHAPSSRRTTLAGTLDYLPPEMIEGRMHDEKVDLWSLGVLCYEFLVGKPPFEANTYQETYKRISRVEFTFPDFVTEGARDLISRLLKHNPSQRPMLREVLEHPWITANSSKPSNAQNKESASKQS
Procedure: Isothermal titration calorimetry (ITC). ITC experiments were carried out using a MicroCal PEAQ-ITC system (Malvern Panalytical) at 25 °C. A stock solution of Aurora-A 122-403-290A/C393A was dialyzed into ITC buffer overnight (25 mM Tris buffer, pH= 7.5; 150 mM NaCl; 5 mM MgCl2; 5 % v/v glycerol), and the same buffer was employed to resuspend a solid portion of the testing peptides. For each experiment, initially, the cell was filled with 275 µl of Aurora-A122-403-290A/C393A (46 μM) and the syringe was loaded with the corresponding peptide at 1.25 mM concentration. An initial injection of 0.5 μL was then followed by 13 injections of 3 μL, every 150 s, with a constant syringe rotation speed of 750 rpm throughout. The signal for the enthalpy of dilution of each peptide into buffer was independently measured in a control titration experiment and then subtracted from the experimental binding traces. The Kd, ΔG°, ΔH° and -TΔS° values were determined via the MicroCal PEAQ-ITC analysis software (Malvern Paranalytical) using a single-site binding model. […]

[2] = molecular target: T1, Aurora-A122-403-C290A/C393A; assay: Competition FA assay against FAM-Ahx-TACC3 522-536 tracer; type: binding
[3] = as E1, Table S3 (mal): maleimide-constrained species, WT value is an individual replica control assay, mean ± SD, n = 3, SD, read-out: IC50 (mal)

Kd ([1]; ITC 25 °C, Aurora-A 46 µM in cell, Ac-capped peptide 1.25 mM, 25 mM Tris, 150 mM NaCl, 5 mM MgCl2, 5% v/v glycerol, pH 7.5, N restrained fit (N = 1)): 57.4 µM
Kd ([1]; ITC as E13, N unrestrained fit): 58.6 µM
Compound: CC(=O)N[C@@H](CCC(=O)O)C(=O)N[C@@H](CCC(=O)O)C(=O)N[C@@H](CO)C(=O)N[C@@H](Cc1ccccc1)C(=O)N[C@@H](CCCNC(=N)N)C(=O)N[C@@H](CC(=O)O)C(=O)N1CCC[C@H]1C(=O)N[C@@H](C)C(=O)N[C@@H](CCC(=O)O)C(=O)N[C@H](C(=O)N[C@@H](CC(C)C)C(=O)NCC(=O)N[C@H](C(=O)NCC(=O)N[C@@H](C)C(N)=O)[C@@H](C)O)C(C)C [TACC3 522-536]

IC50 ([2]; as E1, Table S3 column (Bph): biphenyl-constrained species, WT value is an individual replica control assay, mean ± SD, n = 3, SD, read-out: IC50 (Bph)): 249 ± 43 µM
Compound: CC(=O)N[C@@H](CCC(=O)O)C(=O)N[C@@H](CCC(=O)O)C(=O)N[C@@H](CO)C(=O)N[C@@H](Cc1ccccc1)C(=O)N[C@H]1CSCc2ccc(cc2)-c2ccc(cc2)CSC[C@@H](C(=O)N[C@@H](CC(C)C)C(=O)NCC(=O)N[C@H](C(=O)NCC(=O)N[C@@H](C)C(N)=O)[C@@H](C)O)NC(=O)[C@H](CCC(=O)O)NC(=O)[C@H](C)NC(=O)[C@@H]2CCCN2C(=O)[C@H](CC(=O)O)NC1=O [TACC3 522-536 R526C/V531C (Bph)] (Ac-EESFCDPAECLGTGA-NH2; linker 5-10 via Biphenyl(4,4'-CH2)2)

IC50 ([2]; read-out: IC50): ≥ 500 µM
Compound: CC(=O)N[C@@H](CCC(=O)O)C(=O)N[C@@H](CCC(=O)O)C(=O)N[C@@H](CO)C(=O)NC(C)(Cc1ccccc1)C(=O)N[C@@H](CCCNC(=N)N)C(=O)N[C@@H](CC(=O)O)C(=O)N1CCC[C@H]1C(=O)N[C@@H](C)C(=O)N[C@@H](CCC(=O)O)C(=O)N[C@H](C(=O)N[C@@H](CC(C)C)C(=O)NCC(=O)N[C@H](C(=O)NCC(=O)N[C@@H](C)C(N)=O)[C@@H](C)O)C(C)C (stereo partly drawn) [TACC3 522-536_(α-Me) -525F]

IC50 [2, 3]: 483 ± 58 µM
Compound: CC(=O)N[C@@H](CCC(=O)O)C(=O)N[C@@H](CCC(=O)O)C(=O)N[C@@H](CO)C(=O)N[C@@H](Cc1ccccc1)C(=O)N[C@@H](CCCNC(=N)N)C(=O)N[C@@H](CC(=O)O)C(=O)N1CCC[C@H]1C(=O)N[C@H]1CSC2=C(SC[C@@H](C(=O)NCC(=O)N[C@H](C(=O)NCC(=O)N[C@@H](C)C(N)=O)[C@@H](C)O)NC(=O)[C@H](C(C)C)NC(=O)[C@H](CCC(=O)O)NC1=O)C(=O)NC2=O [TACC3 522-536 A529C/L532C (mal)] (Ac-EESFRDPCEVCGTGA-NH2; linker 8-11 via Maleimide(3,4-diyl))

IC50 ([2]; SD, read-out: IC50): 34 ± 6 µM
Compound: CC(=O)N[C@@H](CCC(=O)O)C(=O)N[C@@H](CCC(=O)O)C(=O)N[C@@H](CO)C(=O)N[C@@H](Cc1ccc(Br)cc1)C(=O)N[C@@H](CCCNC(=N)N)C(=O)N[C@@H](CC(=O)O)C(=O)N1CCC[C@H]1C(=O)N[C@@H](C)C(=O)N[C@@H](CCC(=O)O)C(=O)N[C@H](C(=O)N[C@@H](CC(C)C)C(=O)NCC(=O)N[C@H](C(=O)NCC(=O)N[C@@H](C)C(N)=O)[C@@H](C)O)C(C)C [TACC3 522-536_(4-Br)525F]

Compound: CC(=O)N[C@@H](CCC(=O)O)C(=O)N[C@@H](CCC(=O)O)C(=O)N[C@@H](CO)C(=O)N[C@@H](Cc1ccc(C(=O)c2ccccc2)cc1)C(=O)N[C@@H](CCCNC(=N)N)C(=O)N[C@@H](CC(=O)O)C(=O)N1CCC[C@H]1C(=O)N[C@@H](C)C(=O)N[C@@H](CCC(=O)O)C(=O)N[C@H](C(=O)N[C@@H](CC(C)C)C(=O)NCC(=O)N[C@H](C(=O)NCC(=O)N[C@@H](C)C(N)=O)[C@@H](C)O)C(C)C [TACC3 522-536_(pBnz) -525F] (Ac-EES[Bpa]RDPAEVLGTGA-NH2)
IC50 [2]: ≥ 500 µM

IC50 ([2]; as E1, Table S3 (mal): maleimide-constrained species, WT value is an individual replica control assay, mean ± SD, n = 3, read-out: IC50 (mal)): ≥ 500 µM
Compound: CC(=O)N[C@@H](CCC(=O)O)C(=O)N[C@@H](CCC(=O)O)C(=O)N[C@@H](CO)C(=O)N[C@@H](Cc1ccccc1)C(=O)N[C@@H](CCCNC(=N)N)C(=O)N[C@@H](CC(=O)O)C(=O)N1CCC[C@H]1C(=O)N[C@@H](C)C(=O)N[C@@H](CCC(=O)O)C(=O)N[C@H](C(=O)N[C@@H](CC(C)C)C(=O)N[C@H]1CSC2=C(SC[C@@H](C(N)=O)NC(=O)CNC(=O)[C@H]([C@@H](C)O)NC1=O)C(=O)NC2=O)C(C)C [TACC3 522-536 G533C/A536C (mal)] (Ac-EESFRDPAEVLCTGC-NH2; linker 12-15 via Maleimide(3,4-diyl))

IC50 ([2]; as E1, free-sulfhydryl (reduced) species, DTT 5 mM in buffer, WT control (+DTT), mean ± SD, n = 3, SD, read-out: IC50 (red)): 309 ± 38 µM
Compound: CC(=O)N[C@@H](CCC(=O)O)C(=O)N[C@@H](CCC(=O)O)C(=O)N[C@@H](CS)C(=O)N[C@@H](Cc1ccccc1)C(=O)N[C@@H](CCCNC(=N)N)C(=O)N[C@@H](CS)C(=O)N1CCC[C@H]1C(=O)N[C@@H](C)C(=O)N[C@@H](CCC(=O)O)C(=O)N[C@H](C(=O)N[C@@H](CC(C)C)C(=O)NCC(=O)N[C@H](C(=O)NCC(=O)N[C@@H](C)C(N)=O)[C@@H](C)O)C(C)C [TACC3 522-536 S524C/D527C (red)] (Ac-EECFRCPAEVLGTGA-NH2)

IC50 ([2]; read-out: IC50): ≥ 300 µM
Compound: Ac-EESFRDPAEILGTGA-NH2 [TACC3 522-536_V531I]

IC50 ([2]; SD, read-out: IC50): 46 ± 8 µM
Compound: CC(=O)N[C@@H](CCC(=O)O)C(=O)N[C@@H](CCC(=O)O)C(=O)N[C@@H](CO)C(=O)N[C@@H](Cc1ccc(Cl)cc1)C(=O)N[C@@H](CCCNC(=N)N)C(=O)N[C@@H](CC(=O)O)C(=O)N1CCC[C@H]1C(=O)N[C@@H](C)C(=O)N[C@@H](CCC(=O)O)C(=O)N[C@H](C(=O)N[C@@H](CC(C)C)C(=O)NCC(=O)N[C@H](C(=O)NCC(=O)N[C@@H](C)C(N)=O)[C@@H](C)O)C(C)C [TACC3 522-536_(4-Cl)525F]

IC50 [2, 3]: 480 ± 60 µM
Compound: CC(=O)N[C@@H](CCC(=O)O)C(=O)N[C@@H](CCC(=O)O)C(=O)N[C@@H](CO)C(=O)N[C@@H](Cc1ccccc1)C(=O)N[C@@H](CCCNC(=N)N)C(=O)N[C@@H](CC(=O)O)C(=O)N1CCC[C@H]1C(=O)N[C@@H](C)C(=O)N[C@@H](CCC(=O)O)C(=O)N[C@H](C(=O)N[C@H]1CSC2=C(SC[C@@H](C(=O)N[C@@H](C)C(N)=O)NC(=O)[C@H]([C@@H](C)O)NC(=O)CNC1=O)C(=O)NC2=O)C(C)C [TACC3 522-536 L532C/G535C (mal)] (Ac-EESFRDPAEVCGTCA-NH2; linker 11-14 via Maleimide(3,4-diyl))

IC50 ([2]; as E1, free-sulfhydryl (reduced) species, DTT 5 mM in buffer, WT control (+DTT), mean ± SD, n = 3, read-out: IC50 (red)): ≥ 500 µM
Compound: CC(=O)N[C@@H](CCC(=O)O)C(=O)N[C@@H](CCC(=O)O)C(=O)N[C@@H](CO)C(=O)N[C@@H](Cc1ccccc1)C(=O)N[C@@H](CCCNC(=N)N)C(=O)N[C@@H](CC(=O)O)C(=O)N1CCC[C@H]1C(=O)N[C@@H](C)C(=O)N[C@@H](CCC(=O)O)C(=O)N[C@@H](CS)C(=O)N[C@@H](CC(C)C)C(=O)NCC(=O)N[C@@H](CS)C(=O)NCC(=O)N[C@@H](C)C(N)=O [TACC3 522-536 V531C/T534C (red)] (Ac-EESFRDPAECLGCGA-NH2)
